Assay results from patent US20090156577A1, “7-AMINO ALKYLIDENYL-HETEROCYCLIC QUINOLONES AND NAPHTHYRIDONES” (priority 2004, published 2009).
≈ marks a conversion by molar mass, not a printed value. Structures can show the parent of a compound that is named as a salt. Where two headings read alike, the source gives them in different places.

Tested on: pathogenic bacteria
Assay: MIC by microdilution broth method (NCCLS M7-A4), in vitro antibacterial activity
Type: cell-based
Protocol: Minimal inhibitory concentration (MIC) has been an indicator of in vitro antibacterial activity widely used in the art. The in vitro antimicrobial activity of the compounds was determined by the microdilution broth method following the test method from the National Committee for Clinical Laboratory Standards (NCCLS). This method is described in the NCCLS Document M7-A4, Vol. 17, No. 2, “Methods for Dilution Antimicrobial Susceptibility Test for Bacteria that Grow Aerobically—Fourth Edition”, which is incorporated herein by reference.
In this method two-fold serial dilutions of drug in cation adjusted Mueller-Hinton broth are added to wells in microdilution trays. The test organisms are prepared by adjusting the turbidity of actively growing broth cultures so that the final concentration of test organism after it is added to the wells is approximately 5×10^4 CFU/well.
Following inoculation of the microdilution trays, the trays are incubated at 35° C. for 16-20 hours and then read. […] The amount of growth in the wells containing the test compound is compared with the amount of growth in the growth-control wells (no test compound) used in each tray. As set forth in Table 5, compounds of the present invention were tested against a variety of pathogenic bacteria resulting in a range of activities depending on the organism tested.

[1] = Staphylococcus aureus, Organism A: Staphylococcus aureus OC4172, read-out: MIC
[2] = Streptococcus pneumoniae, ATCC49619, Organism E: Streptococcus pneumoniae ATCC 49619, read-out: MIC
[3] = Streptococcus pneumoniae, Organism C: fluoroquinolone-resistant clinical isolate of Streptococcus pneumoniae (QRDR amino acid substitutions)
[4] = Streptococcus pneumoniae, Organism D: fluoroquinolone-resistant clinical isolate of Streptococcus pneumoniae (QRDR amino acid substitutions)
[5] = Organism A: Staphylococcus aureus OC4172
[6] = Organism C: fluoroquinolone-resistant clinical isolate of Streptococcus pneumoniae (QRDR amino acid substitutions)
[7] = Organism E: Streptococcus pneumoniae ATCC 49619
[8] = Streptococcus pneumoniae, Organism B: fluoroquinolone-resistant clinical isolate of Streptococcus pneumoniae (QRDR amino acid substitutions)

Structure (SMILES) | MIC [1] [µg/mL] | MIC [2] [µg/mL] | MIC [3] [µg/mL] | MIC [4] [µg/mL] | MIC [5] [µg/mL] | MIC (Organism B: fluoroquinolone-resistant clinical isolate of Streptococcus pneumoniae (QRDR amino acid substitutions)) [µg/mL] | MIC [6] [µg/mL] | MIC (Organism D: fluoroquinolone-resistant clinical isolate of Streptococcus pneumoniae (QRDR amino acid substitutions)) [µg/mL] | MIC [7] [µg/mL] | MIC [8] [µg/mL] | MIC (Staphylococcus aureus, Organism A: Staphylococcus aureus OC4172) [µg/mL] | MIC (Streptococcus pneumoniae, ATCC49619, Organism E: Streptococcus pneumoniae ATCC 49619) [µg/mL]
COc1c(N2CC/C(=C(/F)CN)C(C)C2)c(F)cc2c(=O)c(C(=O)O)cn(C3CC3)c12 (stereo not shown) [Compound 11, (Z)-7-[4-(2-Amino-1-fluoro-ethylidene)-3-methyl-piperidin-1-yl]-1-cyclopropyl-6-fluoro-8-methoxy-4-oxo-1,4-dihydro-quinoline-3-carboxylic acid] | 0.03 (≈ 0.0692 µM) | 0.12 (≈ 0.277 µM) | 0.5 (≈ 1.15 µM) | 1 (≈ 2.31 µM) | – | – | – | – | – | – | – | –
COc1c(N2CCC(=C(F)CN)CC2)c(F)cc2c(=O)c(C(=O)O)cn(C3CC3)c12 [Compound 12, (E)-7-[4-(2-Amino-1-fluoro-ethylidene)-piperidin-1-yl]-1-cyclopropyl-7-6-fluoro-8-methoxy-4-oxo-1,4-dihydro-quinoline-3-carboxylic acid] | – | – | – | – | 0.12 (≈ 0.286 µM) | 2 (≈ 4.77 µM) | 4 (≈ 9.54 µM) | 4 (≈ 9.54 µM) | 0.5 (≈ 1.19 µM) | – | – | –
COc1c(N2CC/C(=C(\Cl)CN)C2)c(F)cc2c(=O)c(C(=O)O)cn(C3CC3)c12 [Compound 14, (E)-7-[3-(2-Amino-1-chloro-ethylidene)-pyrrolidin-1-yl]-1-cyclopropyl-6-fluoro-8-methoxy-4-oxo-1,4-dihydro-quinoline-3-carboxylic acid] | 0.03 (≈ 0.0711 µM) | 0.25 (≈ 0.593 µM) | 1 (≈ 2.37 µM) | 1 (≈ 2.37 µM) | – | – | – | – | – | 2 (≈ 4.74 µM) | – | –
NCC=C1CCN(c2nc3c(cc2F)c(=O)c(C(=O)O)cn3C2CC2)CC1 [Compound 59, 7-[4-(2-Amino-ethylidene)-piperidin-1-yl]-1-cyclopropyl-6-fluoro-4-oxo-1,4-dihydro-[1,8]naphthyridine-3-carboxylic acid] | 0.06 (≈ 0.161 µM) | 0.5 (≈ 1.34 µM) | 8 (≈ 21.5 µM) | – | – | – | – | – | – | 8 (≈ 21.5 µM) | – | –
NCC=C1CCN(c2nc3c(cc2F)c(=O)c(C(=O)O)cn3C2CC2)CC1O (stereo not shown) [Compound 60, 7-[4-(2-Amino-ethylidene)-3-hydroxy-piperidin-1-yl]-1-cyclopropyl-6-fluoro-4-oxo-1,4-dihydro-[1,8]naphthyridine-3-carboxylic acid] | 2 (≈ 5.15 µM) | 16 (≈ 41.2 µM) | 16 (≈ 41.2 µM) | – | – | – | – | – | – | – | – | –
CON=C1CN(c2nc3c(cc2F)c(=O)c(C(=O)O)cn3C2CC2)CCC1=CCN [Compound 61, 7-[4-(2-Amino-ethylidene)-3-methoxyimino-piperidin-1-yl]-1-cyclopropyl-6-fluoro-4-oxo-1,4-dihydro-[1,8]naphthyridine-3-carboxylic acid] | 0.12 (≈ 0.289 µM) | 1 (≈ 2.41 µM) | 16 (≈ 38.5 µM) | – | – | – | – | – | – | – | – | –
CC(CN)=C1CCN(c2nc3c(cc2F)c(=O)c(C(=O)O)cn3C2CC2)CC1O (stereo not shown) [Compound 62, 7-[4-(2-Amino-1-methyl-ethylidene)-3-hydroxy-piperidin-1-yl]-1-cyclopropyl-6-fluoro-4-oxo-1,4-dihydro-[1,8]naphthyridine-3-carboxylic acid] | 2 (≈ 4.97 µM) | 8 (≈ 19.9 µM) | > 16 | – | – | – | – | – | – | > 16 | – | –
CC(CN)=C1CCN(c2cc3c(cc2F)c(=O)c(C(=O)O)cn3C2CC2)CC1 [Compound 64, 7-[4-(2-Amino-1-methyl-ethylidene)-piperidin-1-yl]-1-cyclopropyl-6-fluoro-4-oxo-1,4-dihydro-quinoline-3-carboxylic acid] | 0.12 (≈ 0.311 µM) | 1 (≈ 2.59 µM) | 2 (≈ 5.19 µM) | 8 (≈ 20.8 µM) | – | – | – | – | – | 8 (≈ 20.8 µM) | – | –
NCC(Cl)=C1CCN(c2cc3c(cc2F)c(=O)c(C(=O)O)cn3C2CC2)CC1 [Compound 65, 7-[4-(2-Amino-1-chloro-ethylidene)-piperidin-1-yl]-1-1-cyclopropyl-6-fluoro-4-oxo-1,4-dihydro-quinoline-3-carboxylic acid] | 0.03 (≈ 0.0739 µM) | 0.12 (≈ 0.296 µM) | 0.5 (≈ 1.23 µM) | 1 (≈ 2.46 µM) | – | – | – | – | – | – | – | –
CCC(CN)=C1CCN(c2nc3c(cc2F)c(=O)c(C(=O)O)cn3C2CC2)CC1 [Compound 69, 7-[4-(1-Aminomethyl-propylidene)-piperidin-1-yl]-1-cyclopropyl-6-fluoro-4-oxo-1,4-dihydro-[1,8]naphthyridine-3-carboxylic acid] | 0.06 (≈ 0.15 µM) | 0.25 (≈ 0.624 µM) | 1 (≈ 2.5 µM) | 2 (≈ 4.99 µM) | – | – | – | – | – | – | – | –
COc1c(N2CCC(=C(C)CN)CC2)c(F)cc2c(=O)c(C(=O)O)cn(C3CC3)c12 [Compound 70, 7-[4-(2-Amino-1-methyl-ethylidene)-piperidin-1-yl]-1-cyclopropyl-6-fluoro-8-methoxy-4-oxo-1,4-dihydro-quinoline-3-carboxylic acid] | – | – | – | 0.25 (≈ 0.602 µM) | 0.03 (≈ 0.0722 µM) | – | 0.25 (≈ 0.602 µM) | – | 0.12 (≈ 0.289 µM) | – | – | –
CCC(CN)=C1CCN(c2c(F)cc3c(=O)c(C(=O)O)cn(C4CC4)c3c2OC)CC1 [Compound 71, 7-[4-(1-Aminomethyl-propylidene)-piperidin-1-yl]-1-cyclopropyl-6-fluoro-8-methoxy-4-oxo-1,4-dihydro-quinoline-3-carboxylic acid] | 0.03 (≈ 0.0698 µM) | 0.12 (≈ 0.279 µM) | 0.25 (≈ 0.582 µM) | 0.5 (≈ 1.16 µM) | – | – | – | – | – | – | – | –
CNCC(Cl)=C1CCN(c2c(F)cc3c(=O)c(C(=O)O)cn(C4CC4)c3c2OC)CC1 [Compound 72, 7-[4-(1-Chloro-2-methylamino-ethylidene)-piperidin-1-yl]-1-cyclopropyl-6-fluoro-8-methoxy-4-oxo-1,4-dihydroquinoline-3-carboxylic Acid Trifluoroacetic Acid Salt] | – | – | 0.5 | 0.25 | – | – | – | – | – | 0.25 | 0.03 | 0.12
NCC(Cl)=C1CCN(c2c(F)cc3c(=O)c(C(=O)O)cn(C4CC4)c3c2OC(F)F)CC1 [Compound 73, 7-[4-(2-Amino-1-chloro-ethylidene)-piperidin-1-yl]-1-cyclopropyl-8-difluoromethoxy-6-fluoro-4-oxo-1,4-dihydro-quinoline-3-carboxylic acid] | 0.06 (≈ 0.127 µM) | 0.12 (≈ 0.254 µM) | 1 (≈ 2.12 µM) | 0.25 (≈ 0.53 µM) | – | – | – | – | – | 0.5 (≈ 1.06 µM) | – | –
CNCC(C)=C1CCN(c2c(F)cc3c(=O)c(C(=O)O)cn(C4CC4)c3c2OC(F)F)CC1 [Compound 74, 1-Cyclopropyl-8-difluoromethoxy-6-fluoro-7-[4-(1-methyl-2-methylamino-ethylidene)-piperidin-1-yl]-4-oxo-1,4-dihydro-quinoline-3-carboxylic acid] | 0.06 (≈ 0.129 µM) | – | – | 0.25 (≈ 0.537 µM) | – | – | 1 (≈ 2.15 µM) | – | 0.12 (≈ 0.258 µM) | – | – | –
CCNCC(Cl)=C1CCN(c2c(F)cc3c(=O)c(C(=O)O)cn(C4CC4)c3c2OC)CC1 [Compound 75, 7-[4-(1-Chloro-2-ethylamino-ethylidene)-piperidin-1-yl]-1-cyclopropyl-6-fluoro-8-methoxy-4-oxo-1,4-dihydro-quinoline-3-carboxylic acid] | 0.12 (≈ 0.259 µM) | 0.25 (≈ 0.539 µM) | 1 (≈ 2.16 µM) | 1 (≈ 2.16 µM) | – | – | – | – | – | 1 (≈ 2.16 µM) | – | –
NCC(Cl)=C1CCN1c1cc2c(cc1F)c(=O)c(C(=O)O)cn2C1CC1 [Compound 76, 7-[4-(2-Amino-1-chloro-ethylidene)-azetidin-1-yl}-1-cyclopropyl-6-fluoro-4-oxo-1,4-dihydro-quinoline-3-carboxylic acid] | 0.03 (≈ 0.0794 µM) | 0.25 (≈ 0.662 µM) | 1 (≈ 2.65 µM) | 2 (≈ 5.29 µM) | – | – | – | – | – | 2 (≈ 5.29 µM) | – | –
C[C@H]1COc2c(N3CC(=C(Cl)CN)C3)c(F)cc3c(=O)c(C(=O)O)cn1c23 [Compound 77, 9-[3-(2-Amino-1-chloro-ethylidene)-azetidin-1-yl}-8-fluoro-(3S)-3-methyl-6-oxo-2,3-dihydro-6H-1-oxa-3a-aza-phenalene-5-carboxylic acid] | 0.12 (≈ 0.305 µM) | 1 (≈ 2.54 µM) | 16 (≈ 40.6 µM) | 16 (≈ 40.6 µM) | – | – | – | – | – | 8 (≈ 20.3 µM) | – | –
COc1c(N2CCC(=C(F)CN)C(C)(C)C2)c(F)cc2c(=O)c(C(=O)O)cn(C3CC3)c12 [Compound 78, 7-[4-(2-Amino-1-fluoro-ethylidene)-3,3-dimethyl-piperidin-1-yl]-1-cyclopropyl-6-fluoro-8-methoxy-4-oxo-1,4-dihydro-quinoline-3-carboxylic acid] | 1 (≈ 2.23 µM) | 0.25 (≈ 0.559 µM) | 1 (≈ 2.23 µM) | – | – | – | – | – | – | 2 (≈ 4.47 µM) | – | –
CNCC(C)=C1CCN(c2nc3c(cc2F)c(=O)c(C(=O)O)cn3C2CC2)CC1 [Compound 79, 1-Cyclopropyl-6-fluoro-7-[4-(1-methyl-2-methylamino-ethylidene)-piperidin-1-yl]-4-oxo-1,4-dihydro-[1,8]naphthyridine-3-carboxylic acid] | – | 0.25 (≈ 0.624 µM) | 2 (≈ 4.99 µM) | 1 (≈ 2.5 µM) | 0.06 (≈ 0.15 µM) | – | – | – | – | – | – | –
NCC(F)=C1CN(c2nc3c(cc2F)c(=O)c(C(=O)O)cn3C2CC2)C1 [Compound 80, 7-[3-(2-Amino-1-fluoro-ethylidene)-azetidin-1-yl]-1-cyclopropyl-6-fluoro-4-oxo-1,4-dihydro-[1,8]naphthyridine-3-carboxylic acid] | 0.06 (≈ 0.166 µM) | 0.12 (≈ 0.331 µM) | 2 (≈ 5.52 µM) | 1 (≈ 2.76 µM) | – | – | – | – | – | 0.5 (≈ 1.38 µM) | – | –
